# Experimental data as given in patent US8076367B2, “Benzimidazolylidene propane-1,3-dione derivative or salt thereof” (Astellas Pharma Inc., priority 2004, dated 2011).
# Key:
# human GnRH receptor = biological target: T1, human GnRH receptor (Homo sapiens, UniProt P30968); experiment: Test on GnRH receptor antagonism (125I-D-Trp6-LHRH binding inhibition); conditions: inhibition of 125I-D-Trp6-LHRH binding to human GnRH receptor
# T1 sequence (P30968 1-328): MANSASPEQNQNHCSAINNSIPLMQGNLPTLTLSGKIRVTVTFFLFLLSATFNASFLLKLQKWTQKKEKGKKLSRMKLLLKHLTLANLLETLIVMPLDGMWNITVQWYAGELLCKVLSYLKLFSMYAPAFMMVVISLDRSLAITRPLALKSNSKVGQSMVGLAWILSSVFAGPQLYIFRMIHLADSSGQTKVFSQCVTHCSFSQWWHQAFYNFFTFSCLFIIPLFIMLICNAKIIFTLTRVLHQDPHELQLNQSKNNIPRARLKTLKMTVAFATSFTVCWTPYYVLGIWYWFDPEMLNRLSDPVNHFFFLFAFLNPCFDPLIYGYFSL
# Excerpt: GnRH receptor antagonism test method described on p. 56 of the Patent Reference 1.
# [1] = Measurement of blood concentration of a compound by ex vivo binding assay; conditions: Wistar male rat, oral 10 mg/kg in 0.5% MC, serum 2 hours after administration, read-out: Blood compound concentration (B) 2 hour value
# Description: Each compound to be tested was dissolved or suspended in 0.5% methyl cellulose (MC) solution and was orally administered to Wistar male rat of 9 weeks of age (SLC Japan) at a dose of 10 mg/kg. Blood sample was collected after 2 hours of the administration to obtain serum.
# Each serum sample was mixed with the same volume of methanol to remove protein and optionally diluted with an assay buffer, and then the ^125I-D-Trp^6-LHRH binding inhibition ratio was measured in the same manner as in Test Example 1. Using a separately prepared calibration curve on the concentration-binding inhibition of compounds to be tested, blood concentration of each compound (μM) was calculated from the binding inhibition ratio.
# Cytochrome P450 (CYP3A4) = Cytochrome P450 (CYP3A4) (Homo sapiens, UniProt P08684); experiment: Cytochrome P450 (CYP3A4) enzyme inhibition, Inhibition Test II (preincubation); type: in vitro ADME; conditions: 30 minutes preincubation with human liver microsome and NADPH, then midazolam 20 minutes; compared with Ex 40, Ex 251, Ex 239 of Patent Reference 1
# Description: Thereafter, midazolam as the substrate was added thereto and incubated at 37° C. for 20 minutes.
# [2] = Test on metabolic stability in human liver microsome; type: in vitro ADME; conditions: human liver microsome 0.2 mg protein/ml, 37° C. 15 minutes; compared with Ex 40, Ex 251, Ex 239 of Patent Reference 1
# Cytochrome P450 (CYP3A4), sequence (P08684 whole entry): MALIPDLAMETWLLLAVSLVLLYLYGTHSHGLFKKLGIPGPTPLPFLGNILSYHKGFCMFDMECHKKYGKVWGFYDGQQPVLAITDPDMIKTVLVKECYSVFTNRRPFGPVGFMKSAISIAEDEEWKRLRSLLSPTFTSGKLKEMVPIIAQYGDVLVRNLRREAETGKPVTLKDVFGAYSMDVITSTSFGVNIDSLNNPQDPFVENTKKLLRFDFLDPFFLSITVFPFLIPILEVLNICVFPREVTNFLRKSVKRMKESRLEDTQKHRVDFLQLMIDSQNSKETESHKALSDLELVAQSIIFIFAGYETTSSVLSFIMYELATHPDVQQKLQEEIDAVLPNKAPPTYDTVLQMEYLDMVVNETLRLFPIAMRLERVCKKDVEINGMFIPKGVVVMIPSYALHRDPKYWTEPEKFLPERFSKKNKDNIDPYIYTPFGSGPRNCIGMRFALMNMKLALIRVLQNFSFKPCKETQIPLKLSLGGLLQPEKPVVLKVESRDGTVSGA
SMILES,IC50 (human GnRH receptor),concentration at 2 h [1],melting point,Inhibitory activity II (CYP3A4) (Cytochrome P450 (CYP3A4)),metabolic stability in human liver microsome (in vitro clearance) [2]
O=C(C(C(=O)c1cccc(C(O)CO)c1)=C1Nc2ccccc2N1)c1cc(F)cc(Cl)c1 (stereo not drawn) [Ex 2-3],0.082 nM,710 nM,,,
"O=C(C(C(=O)c1cccc([C@@H](O)CO)c1)=C1Nc2ccccc2N1)c1cc(F)cc(F)c1 [Ex 13-2, 1-(3,5-difluorophenyl)-2-(1,3-dihydro-2H-benzimidazol-2-ylidene)-3-{3-[(1R)-1,2-dihydroxyethyl]phenyl}propane-1,3-dione]",,,189 to 190 °C,,
O=C(C(C(=O)c1cccc([C@@H](O)CO)c1Cl)=C1Nc2ccccc2N1)c1cc(F)cc(F)c1 [Ex 4-30],0.1 nM,1500 nM,126 to 129 °C,superior actions,superior metabolic stability
Cc1c(C(=O)C(C(=O)c2ccccc2F)=C2Nc3ccccc3N2)cccc1[C@@H](O)CO [Ex 4-29],0.19 nM,6440 nM,215 to 217 °C,superior actions,superior metabolic stability
O=C(C(C(=O)c1cccc(C(O)CO)c1)=C1Nc2ccccc2N1)c1cccc(F)c1 (stereo not drawn) [Ex 2-7],0.19 nM,1650 nM,,,
CCCCc1c(C(=O)C(C(=O)c2cccc(F)c2)=C2Nc3ccccc3N2)cccc1[C@@H](O)CO [Ex 4-8],0.081 nM,1790 nM,132 to 133 °C,,
O=C(C(C(=O)c1cc(F)cc(F)c1F)=C1Nc2ccccc2N1)c1cccc(C(O)CO)c1 (stereo not drawn) [Ex 2-48],0.22 nM,2160 nM,127 to 129 °C,,
Cc1c(C(=O)C(C(=O)c2cc(F)cc(F)c2)=C2Nc3ccccc3N2)cccc1[C@@H](O)CO [Ex 4-5],0.12 nM,3740 nM,228 to 229 °C,superior actions,superior metabolic stability
O=C(C(C(=O)c1cc(F)c(F)c(F)c1)=C1Nc2ccccc2N1)c1cccc(C(O)CO)c1 (stereo not drawn) [Ex 2-4],0.17 nM,1310 nM,139 to 140 °C,superior actions,superior metabolic stability
"O=C(C(C(=O)c1cccc([C@@H](O)CO)c1)=C1Nc2ccccc2N1)c1cccc(F)c1 [Ex 4-1, 2-(1,3-dihydro-2H-benzimidazol-2-ylidene)-1-{3-[(1R)-1,2-dihydroxyethyl]phenyl}-3-(3-fluorophenyl)propane-1,3-dione]",0.093 nM,1360 nM,190 to 191 °C,superior actions,superior metabolic stability
O=C(C(C(=O)c1cccc(C(O)CO)c1)=C1Nc2ccc(F)cc2N1)c1cc(F)cc(F)c1 (stereo not drawn) [Ex 2-5],0.1 nM,820 nM,,,
O=C(C(C(=O)c1cccc([C@@H](O)CO)c1F)=C1Nc2ccccc2N1)c1cc(F)cc(F)c1 [Ex 4-33],0.12 nM,1590 nM,,,
O=C(C(C(=O)c1ccc(F)c([C@@H](O)CO)c1)=C1Nc2ccccc2N1)c1cc(F)cc(F)c1 [Ex 4-22],0.13 nM,2170 nM,147 to 149 °C,superior actions,superior metabolic stability
O=C(C(C(=O)c1cccc(C(O)CO)c1)=C1Nc2cc(F)c(Cl)cc2N1)c1cc(F)cc(F)c1 (stereo not drawn) [Ex 2-12],0.15 nM,920 nM,,,
O=C(C(C(=O)c1cc(C(O)CO)ccc1F)=C1Nc2ccccc2N1)c1cc(F)cc(F)c1 (stereo not drawn) [Ex 2-20],0.2 nM,1140 nM,,,

# More lines, now with the values ahead:
IC50 (human GnRH receptor),concentration at 2 h [1],melting point,Inhibitory activity II (CYP3A4) (Cytochrome P450 (CYP3A4)),metabolic stability in human liver microsome (in vitro clearance) [2],SMILES
0.18 nM,1110 nM,,,,Cc1c(C(=O)C(C(=O)c2cccc(Cl)c2)=C2Nc3ccccc3N2)cccc1[C@@H](O)CO [Ex 4-23]
0.12 nM,880 nM,,,,O=C(C(C(=O)c1cccc(C(O)CO)c1)=C1Nc2ccccc2N1)c1cccc(Cl)c1 (stereo not drawn) [Ex 2-50]
0.076 nM,1440 nM,134 to 136 °C,,,O=C(C(C(=O)c1cccc([C@@H](O)CO)c1Cl)=C1Nc2ccccc2N1)c1cccc(Cl)c1 [Ex 4-15]
0.12 nM,670 nM,,,,Cc1cccc(C(=O)C(C(=O)c2cccc([C@@H](O)CO)c2Cl)=C2Nc3ccccc3N2)c1 [Ex 4-32]
0.14 nM,1390 nM,,superior actions,superior metabolic stability,Cc1cccc(C(=O)C(C(=O)c2cccc([C@@H](O)CO)c2C)=C2Nc3ccccc3N2)c1 [Ex 4-25]
0.1 nM,1040 nM,197 to 198 °C,superior actions,superior metabolic stability,O=C(C(C(=O)c1cccc([C@@H](O)CO)c1F)=C1Nc2ccccc2N1)c1cccc(F)c1 [Ex 4-4]
0.24 nM,2170 nM,125 to 127 °C,superior actions,superior metabolic stability,O=C(C(C(=O)c1cccc([C@@H](O)CO)c1Cl)=C1Nc2ccccc2N1)c1cccc(F)c1 [Ex 4-21]
